{"source": "patent US20150105252A1", "about": "“SUBSTITUTED PYRAZOLES AS HERBICIDES” (E I DU PONT DE NEMOURS AND COMPANY, priority 2013, published 2015)", "key": {"foxtail, giant [1]": {"tested_on": "foxtail, giant", "assay": "Test A postemergence", "assay_type": "in vivo, Setaria faberii", "method_in_brief": "(§1)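 Both timings tested concurrently in loam/sand soil: preemergence by directed soil spray, postemergence on plants of 2–10 cm at the one- to two-leaf stage. Greenhouse holding period was approximately 10 days before visual injury assessment (0–100, 0 = no effect).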"}, "velvetleaf [2]": {"tested_on": "velvetleaf", "assay": "Test A postemergence", "assay_type": "in vivo, Abutilon theophrasti", "method_in_brief": "as §1"}, "wheat [3]": {"tested_on": "wheat", "assay": "Test A postemergence", "assay_type": "in vivo, Triticum aestivum", "method_in_brief": "as §1"}, "corn [4]": {"tested_on": "corn", "assay": "Test A postemergence", "assay_type": "in vivo, Zea mays", "method_in_brief": "as §1"}, "galium [5]": {"tested_on": "galium", "assay": "Test C preemergence", "assay_type": "in vivo, Galium aparine", "conditions": "for Galium plant response rating: scale 0 to 100 (0 no effect, 100 complete control)", "method_in_brief": "(§2)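 Herbicidal effect is expressed as percent visual control (0–100) judged against untreated plants 13 to 15 days after treatment in the greenhouse. Preemergence pots contained seeds in a soil–sand blend; postemergence plants, 2–18 cm tall, grew in peat-based planting medium.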"}, "corn [6]": {"tested_on": "corn", "assay": "Test C preemergence", "assay_type": "in vivo, Zea mays", "conditions": "for Corn plant response rating: scale 0 to 100 (0 no effect, 100 complete control)", "method_in_brief": "as §2"}, "foxtail, giant [7]": {"tested_on": "foxtail, giant", "assay": "Test C preemergence", "assay_type": "in vivo, Setaria faberii", "conditions": "for Foxtail, Giant plant response rating: scale 0 to 100 (0 no effect, 100 complete control)", "method_in_brief": "as §2"}, "soybean": {"tested_on": "soybean", "assay": "Test C preemergence", "assay_type": "in vivo, Glycine max", "conditions": "for Soybean plant response rating: scale 0 to 100 (0 no effect, 100 complete control)", "method_in_brief": "as §2"}, "waterhemp": {"tested_on": "waterhemp", "assay": "Test C preemergence", "assay_type": "in vivo, Amaranthus rudis", "conditions": "for Waterhemp plant response rating: scale 0 to 100 (0 no effect, 100 complete control)", "method_in_brief": "as §2"}, "wheat [8]": {"tested_on": "wheat", "assay": "Test C postemergence", "assay_type": "in vivo, Triticum aestivum", "method_in_brief": "as §2"}, "galium [9]": {"tested_on": "galium", "assay": "Test C postemergence", "assay_type": "in vivo, Galium aparine", "method_in_brief": "as §2"}, "foxtail, giant [10]": {"tested_on": "foxtail, giant", "assay": "Test C postemergence", "assay_type": "in vivo, Setaria faberii", "method_in_brief": "as §2"}, "morningglory": {"tested_on": "morningglory", "assay": "Test C postemergence", "assay_type": "in vivo, Ipomoea coccinea", "method_in_brief": "as §2"}, "barnyardgrass": {"tested_on": "barnyardgrass", "assay": "Test C postemergence", "assay_type": "in vivo, Echinochloa crus-galli", "method_in_brief": "as §2"}, "kochia": {"tested_on": "kochia", "assay": "Test C postemergence", "assay_type": "in vivo, Kochia scoparia", "method_in_brief": "as §2"}, "velvetleaf [11]": {"tested_on": "velvetleaf", "assay": "Test C postemergence", "assay_type": "in vivo, Abutilon theophrasti", "method_in_brief": "as §2"}, "[12]": {"conditions": "Postemergence, 500 g ai/ha, 0 to 100 scale (0 no effect, 100 complete control)"}, "[13]": {"conditions": "postemergence, 125 g ai/ha, about 10 days, visual rating on 0 to 100 scale (0 no effect, 100 complete control)"}, "[14]": {"conditions": "preemergence, 31 g ai/ha, visual rating, 13 to 15 days"}, "[15]": {"conditions": "preemergence, 62 g ai/ha, 13 to 15 days"}, "[16]": {"conditions": "preemergence, 125 g ai/ha, 13 to 15 days, scale 0 to 100, 0 = no effect, 100 = complete control"}, "[17]": {"conditions": "Postemergence, 31 g ai/ha, visually evaluated after 13 to 15 days"}, "[18]": {"conditions": "postemergence, 62 g ai/ha, scale 0 to 100"}, "[19]": {"conditions": "postemergence, 250 g ai/ha, scale 0 to 100 (0 no effect, 100 complete control)"}, "[20]": {"conditions": "postemergence, 125 g ai/ha, scale 0 to 100, 0 no effect, 100 complete control"}}}
{"smiles": "CCONC(=O)c1cc(CC)n(Cc2ccnc(OC(F)F)c2)n1", "note": "[Compound 131]", "values": [{"measurement": "Foxtail, Giant plant response rating", "setting": "foxtail, giant [1]; [12]", "result": 90}, {"measurement": "Foxtail, Giant plant response rating", "setting": "foxtail, giant [1]; [13]", "result": 80}, {"measurement": "Velvetleaf plant response rating", "setting": "velvetleaf [2]; [12]", "result": 100}, {"measurement": "Velvetleaf plant response rating", "setting": "velvetleaf [2]; [13]", "result": 90}, {"measurement": "Wheat plant response rating", "setting": "wheat [3]; [12]", "result": 90}, {"measurement": "Wheat plant response rating", "setting": "wheat [3]; [13]", "result": 80}, {"measurement": "Corn plant response rating", "setting": "corn [4]; [12]", "result": 100}, {"measurement": "Corn plant response rating", "setting": "corn [4]; [13]", "result": 80}, {"measurement": "Plant response rating (scale of 0 to 100), Galium", "setting": "galium [5]; Preemergence, 250 g ai/ha", "result": 98}, {"measurement": "Galium plant response rating", "setting": "galium [5]; [14]", "result": 55}, {"measurement": "Galium plant response rating", "setting": "galium [5]; [15]", "result": 75}, {"measurement": "Plant response rating, Galium", "setting": "galium [5]; [16]", "result": 75}, {"measurement": "Plant response rating (scale of 0 to 100), Corn", "setting": "corn [6]; Preemergence, 250 g ai/ha", "result": 98}, {"measurement": "Corn plant response rating", "setting": "corn [6]; [14]", "result": 40}, {"measurement": "Corn plant response rating", "setting": "corn [6]; [15]", "result": 90}, {"measurement": "Plant response rating, Corn", "setting": "corn [6]; [16]", "result": 95}, {"measurement": "Plant response rating (scale of 0 to 100), Foxtail, Giant", "setting": "foxtail, giant [7]; Preemergence, 250 g ai/ha", "result": 100}, {"measurement": "Foxtail, Giant plant response rating", "setting": "foxtail, giant [7]; [14]", "result": 85}, {"measurement": "Foxtail, Giant plant response rating", "setting": "foxtail, giant [7]; [15]", "result": 100}, {"measurement": "Plant response rating, Foxtail, Giant", "setting": "foxtail, giant [7]; [16]", "result": 100}, {"measurement": "Plant response rating (scale of 0 to 100), Soybean", "setting": "soybean; Preemergence, 250 g ai/ha", "result": 98}, {"measurement": "Soybean plant response rating", "setting": "soybean; [14]", "result": 30}, {"measurement": "Soybean plant response rating", "setting": "soybean; [15]", "result": 40}, {"measurement": "Plant response rating, Soybean", "setting": "soybean; [16]", "result": 85}, {"measurement": "Plant response rating (scale of 0 to 100), Waterhemp", "setting": "waterhemp; Preemergence, 250 g ai/ha", "result": 100}, {"measurement": "Waterhemp plant response rating", "setting": "waterhemp; [14]", "result": 100}, {"measurement": "Waterhemp plant response rating", "setting": "waterhemp; [15]", "result": 100}, {"measurement": "Plant response rating, Waterhemp", "setting": "waterhemp; [16]", "result": 100}, {"measurement": "Plant response rating (scale of 0 to 100 where 0 is no effect and 100 is complete control), Wheat", "setting": "wheat [8]; [17]", "result": 5}, {"measurement": "Wheat plant response rating", "setting": "wheat [8]; [18]", "result": 5}, {"measurement": "Plant response rating, Wheat", "setting": "wheat [8]; [19]", "result": 10}, {"measurement": "Plant response rating, Wheat", "setting": "wheat [8]; [20]", "result": 10}, {"measurement": "Plant response rating (scale of 0 to 100 where 0 is no effect and 100 is complete control), Galium", "setting": "galium [9]; [17]", "result": 45}, {"measurement": "Galium plant response rating", "setting": "galium [9]; [18]", "result": 55}, {"measurement": "Plant response rating, Galium", "setting": "galium [9]; [19]", "result": 70}, {"measurement": "Plant response rating, Galium", "setting": "galium [9]; [20]", "result": 50}, {"measurement": "Plant response rating (scale of 0 to 100 where 0 is no effect and 100 is complete control), Foxtail, Giant", "setting": "foxtail, giant [10]; [17]", "result": 5}, {"measurement": "Foxtail, Giant plant response rating", "setting": "foxtail, giant [10]; [18]", "result": 10}, {"measurement": "Plant response rating, Foxtail, Giant", "setting": "foxtail, giant [10]; [19]", "result": 50}, {"measurement": "Plant response rating, Foxtail, Giant", "setting": "foxtail, giant [10]; [20]", "result": 40}, {"measurement": "Plant response rating (scale of 0 to 100 where 0 is no effect and 100 is complete control), Morningglory", "setting": "morningglory; [17]", "result": 35}, {"measurement": "Morningglory plant response rating", "setting": "morningglory; [18]", "result": 55}, {"measurement": "Plant response rating, Morningglory", "setting": "morningglory; [19]", "result": 70}, {"measurement": "Plant response rating, Morningglory", "setting": "morningglory; [20]", "result": 65}, {"measurement": "Plant response rating (scale of 0 to 100 where 0 is no effect and 100 is complete control), Barnyardgrass", "setting": "barnyardgrass; [17]", "result": 5}, {"measurement": "Barnyardgrass plant response rating", "setting": "barnyardgrass; [18]", "result": 5}, {"measurement": "Plant response rating, Barnyardgrass", "setting": "barnyardgrass; [19]", "result": 45}, {"measurement": "Plant response rating, Barnyardgrass", "setting": "barnyardgrass; [20]", "result": 10}, {"measurement": "Plant response rating (scale of 0 to 100 where 0 is no effect and 100 is complete control), Kochia", "setting": "kochia; [17]", "result": 40}, {"measurement": "Kochia plant response rating", "setting": "kochia; [18]", "result": 70}, {"measurement": "Plant response rating, Kochia", "setting": "kochia; [19]", "result": 75}, {"measurement": "Plant response rating, Kochia", "setting": "kochia; [20]", "result": 70}, {"measurement": "Plant response rating (scale of 0 to 100 where 0 is no effect and 100 is complete control), Velvetleaf", "setting": "velvetleaf [11]; [17]", "result": 5}, {"measurement": "Velvetleaf plant response rating", "setting": "velvetleaf [11]; [18]", "result": 25}, {"measurement": "Plant response rating, Velvetleaf", "setting": "velvetleaf [11]; [19]", "result": 55}, {"measurement": "Plant response rating, Velvetleaf", "setting": "velvetleaf [11]; [20]", "result": 35}]}
